Measured values taken from patent US4886812A, “Tetrahydro-benzthiazoles, the preparation thereof and their use as intermediate products or as pharmaceuticals” (Dr. Karl Thomae GmbH, priority 1984, dated 1989).
Structures can show the parent of a compound that is named as a salt.

Columns and labels:
[1] = tested on: presynaptic dopamine receptors; assay: Inhibition of the exploratory activity of mice (infra-red light barrier cages); assay type: in vivo
Method: The activity was measured in observation cages fitted with an infra-red light barrier. […] Groups of 5 animals are given the test substance, unless otherwise specified, in a dosage of 10 mg/kg by subcutaneous injection. […] In parallel or alternately with groups treated with test substance, control groups treated with common salt are investigated (0.9% solution; 0.1 ml/10 g of body weight by subcutaneous route).

[2] = tested on: dopamine turnover; assay: Inhibition of dopamine turnover (AMPT-induced dopamine reduction in brain); assay type: in vivo, mice
Method: The inhibition of dopamine turnover was measured in mice. In animals treated with α-methylparatyrosine (AMPT) (250 mg/kg by intraperitoneal route) 15 minutes into the experiment, the dopamine concentration throughout the brain decreases as the test progresses. By administering substances which act on autoreceptors, the dopamine reduction (compared with control animals treated with common salt solution) can be prevented. Test substances are administered at time O of the experiment in a dosage of 5 mg/kg s.c., unless otherwise stated. Four hours and 15 minutes into the experiment the animals are killed and the brains are subjected to dopamine determination using high pressure liquid chromatography with electrochemical detection. This determines the percentage inhibition, caused by the test substance, of the dopamine reduction induced by AMPT.

[3] = tested on: Rhesus monkeys (MPTP model for Parkinson's disease)
Source text: The discovery of the neurotoxin 1-methyl-4-phenyl-1,2,3,6-tetrahydropyridine (MPTP) (Langston et al., Science 219, 979 (1983)) provided an animal model for Parkinson's disease.
The irreversible neurological syndrome triggered by MPTP in man and in monkeys largely resembles the idiopathic Parkinson's disease in its clinical, pathological, biochemical and pharmacological characteristics (Markey et al., Nature 311, 464 (1984)). The reason for this convincing similarity is the fact that MPTP selectively destroys the small group of dopaminergic nerve cells in the substantia nigra of the brain which are also destroyed by degenerative processes in naturally occurring Parkinson's disease.

[4] = tested on: dopamine synthesis; assay: Inhibition of dopamine synthesis (γ-butyrolactone-stimulated DOPA accumulation in corpus striatum); assay type: in vivo
Method: For this purpose, 5 animals are given the test substance in a dosage of 10 mg/kg s.c., unless otherwise stated. […] In order to inhibit the decarboxylation of DOPA, 200 mg/kg of 3-hydroxybenzyl-hydrazinhydrochloride are administered by intraperitoneal route after a further 5 minutes. Forty minutes after administration of the substance the animals are killed and the corpus striatum is prepared. The DOPA content is measured by HPLC with electrochemical detection (standard: dihydroxybenzylamine).
The percentage inhibition, produced by the test substance, of the DOPA accumulation stimulated by γ- butyrolactone compared with the controlled animals treated with 0.9% common salt solution is determined.

[5] = 10 mg/kg s.c., measurement of exploration 75 minutes after administration
[6] = 5 mg/kg s.c., AMPT 250 mg/kg i.p., brain dopamine at 4 hours 15 minutes

## C=CCNc1nc2c(s1)CC(N(C)C)CC2.Cl.Cl (stereo not shown) [Substance D, 2-allylamino-6-dimethylamino-4,5,6,7-tetrahydro-benzthiazol-dihydrochloride]
[1]; [5]
  Inhibition of activity in percent compared with controls treated with common salt: 76%
[2]; [6]
  % inhibition of AMPT effect: 52%

## CCCNC1CCc2nc(N)sc2C1.Cl.Cl (stereo not shown) [Substance C, 2-amino-6-n-propylamino-4,5,6,7-tetrahydrobenzthiazol-dihydrochloride]
[1]; [5]
  Inhibition of activity in percent compared with controls treated with common salt: 20%
[3]; 10-100 μg/kg intramuscular
  Residual symptoms: an occasional transient and slight resting tremor and a reduction in rough strength
  Sedation: no sedation
[3]; 10-100 μg/kg intramuscular, compared with before administration
  Circulation in the skin: appeared to be greater than before
[3]; after reversion to Parkinson symptoms
  Effect of a fresh administration: again leads to an improvement or substantial removal of the clinically pathological manifestations
[4]; 10 mg/kg s.c., γ-butyrolactone 750 mg/kg i.p., 40 minutes after administration
  Inhibition of DOPA accumulation in percent compared with controls treated with common salt: 60%

## C=CCN(Cc1ccc(Cl)cc1)C1CCc2nc(N)sc2C1 (stereo not shown) [Substance E, 6-[N-ally-N-(4-chloro-benzyl)-amino]-2-amino-4,5,6,7-tetrahydro-benzthiazol-dihydrochloride]
[1]; [5]
  Inhibition of activity in percent compared with controls treated with common salt: 56%
[2]; [6]
  % inhibition of AMPT effect: 32%

## Cl.Cl.Nc1nc2c(s1)CC(N1CCCC1)CC2 (stereo not shown) [Substance B, 2-amino-6-pyrrolidino-4,5,6,7-tetrahydrobenzthiazol-dihydrochloride]
[1]; 10 mg/kg s.c., measured one hour after administration
  Inhibition of activity in percent compared with controls treated with common salt: 94%
[2]; [6]
  % inhibition of AMPT effect: 67%

## C=CCN(CC=C)C1CCc2nc(N)sc2C1.Cl.Cl (stereo not shown) [Substance F, 2-amino-6-diallylamino-4,5,6,7-tetrahydrobenzthiazol-dihydrochloride]
[1]; [5]
  Inhibition of activity in percent compared with controls treated with common salt: 60%

## CN(C)C1CCc2nc(N)sc2C1.Cl.Cl (stereo not shown) [Substance A, 2-amino-6-dimethylamino-4,5,6,7-tetrahydrobenzthiazol-dihydrochloride]
[1]; 50 percent inhibition, curve in the range 1-10 mg/kg s.c.
  Dosage giving 50 percent inhibition of activity (read off from the dosage/activity curve): 2.7 mg/kg s.c.
[1]; at 2.7 mg/kg s.c., read off from the dosage/activity curve (1-10 mg/kg s.c.)
  Inhibition of activity in percent compared with controls treated with common salt: 50%
[4]; at 0.55 mg/kg s.c., read off from the dosage/activity curve (0.1-1.0 mg/kg s.c.)
  Inhibition of DOPA accumulation in percent compared with controls treated with common salt: 50%
[4]; sc, 50 percent inhibition, curve in the range 0.1-1.0 mg/kg s.c., read-out: Dosage giving 50 percent inhibition of DOPA accumulation (read off from the dosage/activity curve)
  ED50: 0.55 mg/kg
[2]; Mus musculus, sc, 50 % inhibition, curve in the range 0.5-3 mg/kg s.c., read-out: Dosage giving 50 % inhibition of AMPT effect (read off from the dosage/activity curve)
  ED50: 0.95 mg/kg
[2]; at 0.95 mg/kg s.c., read off from the dosage/activity curve (0.5-3 mg/kg s.c.)
  % inhibition of AMPT effect: 50%
